These results are taken from patent publication US20050282908A1, “Substituted aminopropoxyaryl derivatives useful as agonists for LXR” (SmithKline Beecham Corporation, priority 2000, published 2005).

For experiment [1], the target named is T1, human LXRβ ligand binding domain (Homo sapiens, UniProt P55055).
T1 construct: made in house; host or cells: E. coli BL21 (DE3), vector pRSETa
T1 sequence (P55055 184-460 limits assumed): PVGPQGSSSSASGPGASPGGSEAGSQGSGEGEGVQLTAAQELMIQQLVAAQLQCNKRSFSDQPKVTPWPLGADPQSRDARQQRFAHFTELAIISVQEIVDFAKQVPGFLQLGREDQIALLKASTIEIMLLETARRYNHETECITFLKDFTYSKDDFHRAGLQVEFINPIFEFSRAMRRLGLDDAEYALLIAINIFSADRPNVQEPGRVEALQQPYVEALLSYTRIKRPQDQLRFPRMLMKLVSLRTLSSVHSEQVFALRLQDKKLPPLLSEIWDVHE
T1 sequence (Q15788 676-700 partner limits assumed): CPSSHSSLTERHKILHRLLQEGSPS
Description: Assay for LXRβ Activity (HTRF, SRC-1 peptide recruitment). As to conditions: 1 μM; over a background reading of 10000 fluorescence units. The class given is biochemical. As to the method: A modified polyhistidine tag (MKKGHHHHHHG) (SEQ ID No. 1) was fused in frame to the human LXRβ ligand binding domain (amino acids 185-461 of Genbank accession number U07132) and subcloned into the expression vector pRSETa (Invitrogen) under the control of an IPTG inducible T7 promoter. The human LXRβ ligand binding domain was expressed in E. coli strain BL21 (DE3). Ten-liter fermentation batches were grown in Rich PO4 media with 0.1 mg/mL Ampicillin at 25° C. for 12 hours, cooled to 9° C. and held at that temperature for 36 hours to a density of OD600=14. At this cell density, 0.25 mM IPTG was added and induction proceeded for 24 hours at 9° C., to a final OD600=16. Cells were harvested by centrifugation (20 minutes, 3500 g, 4° C.), and concentrated cell slurries were stored in PBS at −80° C.
Typically 25-50 g of cell paste is resuspended in 250-500 mL TBS, pH 8.0 (25 mM Tris, 150 mM NaCl). Cells are lysed by passing 3 times through an APV Rannie MINI-lab homogenizer and cell debris is removed by centrifugation (30 minutes, 20,000 g, 4° C.). […] After washing to baseline absorbance with equilibration buffer, the column is washed with approximately one column volume of TBS pH […] containing 95 mM imidazole. […] After washing to baseline absorbance with the dilution buffer the protein is eluted with a gradient from 50-500 mM NaCl. […]
For orientation: In TR-FRET formats the signal depends on donor and acceptor labels being close together.

In experiment [2] the target is T2, LXRα ligand binding domain (Homo sapiens, UniProt Q13133).
T2 construct: His tag; made in house
T2 sequence (Q13133 183-447): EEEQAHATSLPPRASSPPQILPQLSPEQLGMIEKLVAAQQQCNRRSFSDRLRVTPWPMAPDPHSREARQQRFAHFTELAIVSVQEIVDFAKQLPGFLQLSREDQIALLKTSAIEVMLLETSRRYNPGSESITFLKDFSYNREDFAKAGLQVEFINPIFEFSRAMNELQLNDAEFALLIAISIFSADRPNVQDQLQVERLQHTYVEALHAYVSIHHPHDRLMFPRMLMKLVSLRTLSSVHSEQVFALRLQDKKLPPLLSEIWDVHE
T2 sequence (Q15788 676-700 partner): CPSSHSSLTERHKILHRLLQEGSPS
Description: Assay for LXRα Activity (HTRF, run as Example 1). The class given is biochemical. The conditions noted are these: 1 μM; over a background reading of 10000 fluorescence units. As to the method:
The assay for LXRα was run according to the procedures of Example 1, above using his-tagged LXRα ligand binding domain (amino acids 183-447 of Genbank accession number U22662, with the 14th amino acid corrected to A from R).
In this assay 1 μM 24(S),25-epoxycholesterol gave a reading of 20000 fluorescence units over a background reading of 10000 fluorescence units.

With `C[C@H](CC[C@@H]1OC1(C)C)[C@H]1CC[C@H]2[C@@H]3CC=C4C[C@@H](O)CC[C@]4(C)[C@H]3CC[C@]12C` [24(S),25-epoxycholesterol], the reading in experiment [1] and in experiment [2] was 20000 fluorescence units each time.
